Assay results reported in patent publication US12264173B2 (GILEAD SCIENCES, INC., priority 2020, dated 2025).
Where two headings read alike, the source gives them in different places.

Key:
Type in all cases: cell-based
RSV strain A2 = assay: microbe, parasite or virus in culture; conditions: Table 3, HEp-2 cells, RSV A2, 4 days, read-out: RSV HEp-2 EC50
Method in brief: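 Cytopathic-effect protection assay: HEp-2 cells (50,000/mL) infected with pre-titered RSV A2 onto 3-fold serial compound dilutions, incubated 4 days at 37° C. Cell viability read by CellTiter-Glo luminescence; percent inhibition derived against 0% and 100% virus-inhibition controls.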

HRV16 = HRV16 HeLa EC50 (cytopathic effect in H1-HeLa cells)
Method in brief: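 Read-out is luminescent cell viability (CellTiter-Glo) after 96 h of infection at 33 °C, scaled between uninfected and infected-untreated wells. Before infection with titrated virus, compounds went onto H1-HeLa cells as triplicate 3-fold dilution series.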

RSV A2 = assay: RSV NHBE EC50 (RSV A2 antiviral assay in NHBE cells); conditions: Table 3, NHBE cells, RSV A2, 4 days, read-out: RSV NHBE EC50
Method in brief: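 Read-out: CellTiter-Glo luminescence of cell viability after 4 days at 37° C. Primary NHBE cells, 7,500/well, 3-fold compound dilutions, 0.05% DMSO, infected with RSV A2 (1×10^4.5 TCID/mL).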

DENV2 replicon = assay: DENV-2 Huh-7 Rep EC50 (replicon luminescence)
Method in brief: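 EC50 derived from luminescence dose-response, normalised to DMSO-only 0% inhibition wells, after 1.5 h with EnduRen substrate. Compounds were first exposed for 48 h at 37° C to DENV2 replicon Huh-7 cells (5,000/well).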

[1] = human respiratory syncytial virus, HEp-2, 96 h
[2] = 96 h, Table 3; H1-HeLa cells, 96 h; read-out: HRV16 HeLa EC50
[3] = human respiratory syncytial virus, NHBE, 96 h
[4] = Dengue virus, DENV2, Huh-7, 48 h, read-out: DENV-2 REP Huh7 EC50
[5] = Table 3; H1-HeLa cells, 96 h; read-out: HRV16 HeLa EC50
[6] = Table 3, Huh-7 DENV2 replicon cells, 48 hours, read-out: DENV-2 REP Huh7 EC50
[7] = Dengue virus, DENV2, Huh-7, 48 h, read-out: DENV-2 REP Huh7 EC50, Table 3, Huh-7 DENV2 replicon cells, 48 hours

Row | Compound | EC50 (RSV strain A2; [1]) [nM] | EC50 (HRV16; [2]) [nM] | EC50 (RSV A2; [3]) [nM] | EC50 (DENV2 replicon; [4]) [nM] | EC50 (RSV strain A2) [nM] | EC50 (HRV16; [5]) [nM] | EC50 (RSV A2) [nM] | EC50 (DENV2 replicon; [6]) [nM] | EC50 (DENV2 replicon; [7]) [nM]
1 | CC(C)OC(=O)[C@H](C)N[P@](=O)(OC[C@@]1(C#N)O[C@@H](c2ccc3c(N)ncnn23)[C@H](OC(=O)C(C)C)[C@@H]1OC(=O)C(C)C)Oc1ccccc1 [Example 84, (2R,3S,4S,5S)-5-(4-aminopyrrolo[2,1-f][1,2,4]triazin-7-yl)-2-cyano-2-((((S)-(((S)-1-isopropoxy-1-oxopropan-2-yl)amino)(phenoxy)phosphoryl)oxy)methyl) tetrahydrofuran-3,4-diyl bis(2-methylpropanoate)] | 58 | 121 | 16 | 13000 | – | – | – | – | –
2 | CCC(=O)O[C@H]1[C@H](c2ccc3c(N)ncnn23)O[C@](C#N)(COP(=O)(N[C@@H](C)C(=O)OC2COC2)Oc2ccccc2)[C@H]1OC(=O)CC (single isomer, unassigned) [Example 176] | – | – | – | – | 182 | 142 | 16 | 9440 | –
3 | CC(C)C(=O)OC1C(c2ccc3c(N)ncnn23)OC(C#N)(COP(=O)(NC(C)C(=O)OCC2CCC(N)CC2)Oc2ccccc2)C1OC(=O)C(C)C (single isomer, unassigned) [Example 209] | – | – | – | – | 1570 | 8520 | 168 | 31400 | –
4 | CCCCOC(=O)[C@H](C)NP(=O)(N[C@@H](C)C(=O)OCCCC)OC[C@@]1(C#N)O[C@@H](c2ccc3c(N)ncnn23)[C@H](OC(=O)CC)[C@@H]1OC(=O)CC [Example 193] | 610 | 1620 | 125 | – | – | – | – | – | 30000
5 | CC(C)C(=O)O[C@H]1[C@H](c2ccc3c(N)ncnn23)O[C@](C#N)(COP(=O)(N[C@@H](C)C(=O)O[C@H]2CC[C@H](N)CC2)Oc2ccccc2)[C@H]1OC(=O)C(C)C (stereo partly drawn) [Example 136, (2R,3S,4S,5S)-2-((((((S)-1-(((1r,4S)-4-aminocyclohexyl)oxy)-1-oxopropan-2-yl)amino)(phenoxy)phosphoryl)oxy)methyl)-5-(4-aminopyrrolo[2,1-f][1,2,4]triazin-7-yl)-2-cyanotetrahydrofuran-3,4-diyl bis(2-methylpropanoate)] | 2950 | 15000 | 244 | 38200 | – | – | – | – | –
6 | CCCOC(=O)[C@H](C)NP(=O)(OC[C@@]1(C#N)O[C@@H](c2ccc3c(N)ncnn23)[C@H](OC(=O)CC)[C@@H]1OC(=O)CC)Oc1ccccc1 (single isomer, unassigned) [Example 189] | – | – | – | – | 36 | 114 | 51 | 8840 | –
7 | CCC(=O)O[C@H]1[C@H](c2ccc3c(N)ncnn23)O[C@](C#N)(COP(=O)(N[C@@H](C)C(=O)OCC2COC2)Oc2ccccc2)[C@H]1OC(=O)CC (stereo partly drawn) [Example 203, (2R,3S,4S,5S)-5-(4-aminopyrrolo[2,1-f][1,2,4]triazin-7-yl)-2-cyano-2-((((((S)-1-(oxetan-3-ylmethoxy)-1-oxopropan-2-yl)amino)(phenoxy)phosphoryl)oxy)methyl) tetrahydrofuran-3,4-diyl dipropionate] | 95 | 359 | 38 | 9500 | – | – | – | – | –
8 | CSCCOP(=O)(N[C@@H](C)C(=O)OC(C)C)OC[C@@]1(C#N)O[C@@H](c2ccc3c(N)ncnn23)[C@H](OC(=O)C(C)C)[C@@H]1OC(=O)C(C)C (stereo partly drawn) [Example 213, (2R,3S,4S,5S)-5-(4-aminopyrrolo[2,1-f][1,2,4]triazin-7-yl)-2-cyano-2-((((((S)-1-isopropoxy-1-oxopropan-2-yl)amino)(2-(methylthio)ethoxy)phosphoryl)oxy)methyl) tetrahydrofuran-3,4-diyl bis(2-methylpropanoate)] | 11800 | 13100 | 2250 | – | – | – | – | – | 23000
9 | CCC(=O)O[C@H]1[C@H](c2ccc3c(N)ncnn23)O[C@](C#N)(COP(=O)(N[C@@H](C)C(=O)OC)N[C@@H](C)C(=O)OC)[C@H]1OC(=O)CC [Example 199] | 4110 | 19500 | 235 | – | – | – | – | – | > 50000
10 | COC(=O)[C@H](C)NP(=O)(OC[C@@]1(C#N)O[C@@H](c2ccc3c(N)ncnn23)[C@H](OC(=O)C(C)C)[C@@H]1OC(=O)C(C)C)Oc1ccccc1 (stereo partly drawn) [Example 138, (2R,3S,4S,5S)-5-(4-aminopyrrolo[2,1-f][1,2,4]triazin-7-yl)-2-cyano-2-((((((S)-1-methoxy-1-oxopropan-2-yl)amino)(phenoxy)phosphoryl)oxy)methyl)tetrahydrofuran-3,4-diyl bis(2-methylpropanoate)] | 63 | 101 | 17 | 5200 | – | – | – | – | –
11 | CCC(=O)OC1[C@H](c2ccc3c(N)ncnn23)O[C@](C#N)(COP(=O)(N[C@@H](C)C(=O)OCC2CCOCC2)Oc2ccccc2)[C@H]1OC(=O)CC (stereo in doubt) [Example 107, (2R,3S,4R,5S)-5-(4-aminopyrrolo[2,1-f][1,2,4]triazin-7-yl)-2-cyano-2-((((((S)-1-oxo-1-((tetrahydro-2H-pyran-4-yl)methoxy)propan-2-yl)amino)(phenoxy)phosphoryl)oxy)methyl)tetrahydrofuran-3,4-diyl dipropionate] | 98 | 388 | 31 | 22400 | – | – | – | – | –
12 | CC(C)[C@H](N)C(=O)O[C@H]1[C@H](c2ccc3c(N)ncnn23)O[C@](C#N)(CO[P@@](=O)(N[C@@H](C)C(=O)OC2CCCCC2)Oc2ccccc2)[C@H]1OC(=O)[C@@H](N)C(C)C [Example 122, (2R,3S,4S,5S)-5-(4-aminopyrrolo[2,1-f][1,2,4]triazin-7-yl)-2-cyano-2-((((S)-(((S)-1-(cyclohexyloxy)-1-oxopropan-2-yl)amino)(phenoxy)phosphoryl)oxy)methyl)tetrahydrofuran-3,4-diyl (2S,2'S)-bis(2-amino-3-methylbutanoate)] | 79 | 301 | 90 | 5540 | – | – | – | – | –
13 | C[C@H](N[P@](=O)(OC[C@@]1(C#N)O[C@@H](c2ccc3c(N)ncnn23)C(OC(=O)c2ccccc2)[C@@H]1OC(=O)c1ccccc1)Oc1ccccc1)C(=O)OC1CCCCC1 (stereo in doubt) [Example 83, (2R,3S,4R,5S)-5-(4-aminopyrrolo[2,1-f][1,2,4]triazin-7-yl)-2-cyano-2-((((S)-(((S)-1-(cyclohexyloxy)-1-oxopropan-2-yl)amino)(phenoxy)phosphoryl)oxy)methyl) tetrahydrofuran-3,4-diyl dibenzoate] | > 100000 | 17400 | > 5000 | 5160 | – | – | – | – | –
14 | CC(=O)O[C@H]1[C@H](c2ccc3c(N)ncnn23)O[C@](C#N)(CO[P@](=O)(N[C@@H](C)C(=O)OCC2CCOCC2)Oc2ccccc2)[C@H]1OC(C)=O [Example 112] | – | – | – | – | 284 | 2900 | 40 | 36500 | –
15 | CC(C)[C@@H](N)C(=O)O[C@H]1[C@H](c2ccc3c(N)ncnn23)O[C@](C#N)(CO[P@@](=O)(N[C@@H](C)C(=O)OC2CCCCC2)Oc2ccccc2)[C@H]1OC(=O)[C@H](N)C(C)C [Example 153, (2R,3S,4S,5S)-5-(4-aminopyrrolo[2,1-f][1,2,4]triazin-7-yl)-2-cyano-2-((((S)-(((S)-1-(cyclohexyloxy)-1-oxopropan-2-yl)amino)(phenoxy)phosphoryl)oxy)methyl)tetrahydrofuran-3,4-diyl (2R,2′R)-bis(2-amino-3-methylbutanoate)] | 110 | 470 | 283 | 6680 | – | – | – | – | –
